According to patent publication US20260042731A1, “(2,4-DICHLOROPHENOXY)ACETIC ACID ANALOGS” (CORTEVA AGRISCIENCE LLC, priority 2022, published 2026):
Read-outs that look alike come from different tables or passages of the source.

Columns and labels:
[1] = test system: Abutilon theophrasti (ABUTH), velvetleaf; experiment: Postemergence herbicide evaluation, growth of Abutilon theophrasti (ABUTH); type: in vivo; details: Abutilon theophrasti, post-emergence, read-out: AVE. ABUTH, percent reduction in plant size relative to the untreated control; for pest or weed control at 280 g/ha: 280 g ae/ha; for pest or weed control at 560 g/ha: 560 g ae/ha
[2] = test system: Amaranthus rudis (AMATA), tall water hemp; experiment: Postemergence herbicide evaluation, growth of Amaranthus rudis (AMATA); type: in vivo; details: Amaranthus tuberculatus, post-emergence, read-out: Ave. AMATA, percent reduction in plant size relative to the untreated control; for pest or weed control at 280 g/ha: 280 g ae/ha; for pest or weed control at 560 g/ha: 560 g ae/ha
[3] = test system: Chenopodium album (CHEAL), common lambsquarters; experiment: Postemergence herbicide evaluation, growth of Chenopodium album (CHEAL); type: in vivo; details: Chenopodium album, post-emergence, read-out: Ave. CHEAL, percent reduction in plant size relative to the untreated control; for pest or weed control at 280 g/ha: 280 g ae/ha; for pest or weed control at 560 g/ha: 560 g ae/ha
[4] = test system: glyphosate resistant Conyza canadensis (L.) (ERICA), horseweed; experiment: Postemergence herbicide evaluation, growth of Conyza canadensis (ERICA); type: in vivo; details: Erigeron canadensis, post-emergence, read-out: Ave. ERICA, percent reduction in plant size relative to the untreated control; for pest or weed control at 280 g/ha: 280 g ae/ha; for pest or weed control at 560 g/ha: 560 g ae/ha
[5] = test system: weeds ABUTH, AMATA, AMBEL, CHEAL, ERICA; experiment: Postemergence herbicide evaluation, overall average % weed control (ABUTH, AMATA, AMBEL, CHEAL, ERICA); type: in vivo; details: post-emergence, read-out: Overall Ave % Weed Control; for pest or weed control at 280 g/ha: 280 g ae/ha; for pest or weed control at 560 g/ha: 560 g ae/ha
[6] = Volatility of compounds measured by thermogravimetric analysis (TGA); type: physicochemical
[7] = test system: Ambrosia artemisiifolia (AMBEL), common ragweed; experiment: Postemergence herbicide evaluation, growth of Ambrosia artemisiifolia (AMBEL); type: in vivo; details: Ambrosia artemisiifolia, post-emergence, read-out: AVE. AMBEL, percent reduction in plant size relative to the untreated control; for pest or weed control at 280 g/ha: 280 g ae/ha; for pest or weed control at 560 g/ha: 560 g ae/ha
[8] = value marked *: decomposition of the material was observed

Row | Compound | pest or weed control at 280 g/ha ([1]; 168 h, 7 DAA) | pest or weed control at 560 g/ha ([1]; 168 h, 7 DAA) | pest or weed control at 280 g/ha ([1]; 336 h, 14 DAA) | pest or weed control at 560 g/ha ([1]; 336 h, 14 DAA) | pest or weed control at 280 g/ha ([1]; 504 h, 21 DAA) | pest or weed control at 560 g/ha ([1]; 504 h, 21 DAA) | pest or weed control at 280 g/ha ([2]; 168 h, 7 DAA) | pest or weed control at 560 g/ha ([2]; 168 h, 7 DAA) | pest or weed control at 280 g/ha ([2]; 336 h, 14 DAA) | pest or weed control at 560 g/ha ([2]; 336 h, 14 DAA) | pest or weed control at 280 g/ha ([2]; 504 h, 21 DAA) | pest or weed control at 560 g/ha ([2]; 504 h, 21 DAA) | pest or weed control at 280 g/ha ([3]; 168 h, 7 DAA) | pest or weed control at 560 g/ha ([3]; 168 h, 7 DAA) | pest or weed control at 280 g/ha ([3]; 336 h, 14 DAA) | pest or weed control at 560 g/ha ([3]; 336 h, 14 DAA) | pest or weed control at 280 g/ha ([3]; 504 h, 21 DAA) | pest or weed control at 560 g/ha ([3]; 504 h, 21 DAA) | pest or weed control at 280 g/ha ([4]; 168 h, 7 DAA) | pest or weed control at 560 g/ha ([4]; 168 h, 7 DAA) | further results
1 | C/C(=N\OC(=O)COc1ccc(Cl)cc1Cl)c1cccnc1 [Compound A26] | 62.5% | 67.5% | 72.5% | 92.5% | 96% | 100% | 65% | 94% | 85% | 90% | 67.5% | 92.5% | 72.5% | 80% | 97.5% | 95% | 87.5% | 95% | 80% | 82.5% | pest or weed control at 280 g/ha ([4]; 336 h, 14 DAA): 99%; pest or weed control at 560 g/ha ([4]; 336 h, 14 DAA): 99.5%; pest or weed control at 280 g/ha ([4]; 504 h, 21 DAA): 100%; pest or weed control at 560 g/ha ([4]; 504 h, 21 DAA): 100%; pest or weed control at 280 g/ha ([5]; 168 h, 7 DAA): 72%; pest or weed control at 560 g/ha ([5]; 168 h, 7 DAA): 80.3%; pest or weed control at 280 g/ha ([5]; 336 h, 14 DAA): 85.3%; pest or weed control at 560 g/ha ([5]; 336 h, 14 DAA): 93.4%; pest or weed control at 280 g/ha ([5]; 504 h, 21 DAA): 90.2%; pest or weed control at 560 g/ha ([5]; 504 h, 21 DAA): 97.5%; TGA Data (rate of weight loss, volatility) [6, 8]: 1.599* μg/min; pest or weed control at 280 g/ha ([7]; 168 h, 7 DAA): 80%; pest or weed control at 560 g/ha ([7]; 168 h, 7 DAA): 77.5%; pest or weed control at 280 g/ha ([7]; 336 h, 14 DAA): 72.5%; pest or weed control at 560 g/ha ([7]; 336 h, 14 DAA): 90%; pest or weed control at 280 g/ha ([7]; 504 h, 21 DAA): 100%; pest or weed control at 560 g/ha ([7]; 504 h, 21 DAA): 100%
2 | C/C(=N\OC(=O)COc1ccc(Cl)cc1Cl)c1ccncc1 [Compound A27] | 60% | 82.5% | 75% | 98.5% | 92.5% | 100% | 75% | 85% | 90% | 96% | 62.5% | 77.5% | 77.5% | 85% | 98% | 94.5% | 98.5% | 100% | 85% | 82.5% | pest or weed control at 280 g/ha ([4]; 336 h, 14 DAA): 100%; pest or weed control at 560 g/ha ([4]; 336 h, 14 DAA): 100%; pest or weed control at 280 g/ha ([4]; 504 h, 21 DAA): 98.5%; pest or weed control at 560 g/ha ([4]; 504 h, 21 DAA): 97.5%; pest or weed control at 280 g/ha ([5]; 168 h, 7 DAA): 75.5%; pest or weed control at 560 g/ha ([5]; 168 h, 7 DAA): 85%; pest or weed control at 280 g/ha ([5]; 336 h, 14 DAA): 87.6%; pest or weed control at 560 g/ha ([5]; 336 h, 14 DAA): 94.3%; pest or weed control at 280 g/ha ([5]; 504 h, 21 DAA): 90.4%; pest or weed control at 560 g/ha ([5]; 504 h, 21 DAA): 95%; TGA Data (rate of weight loss, volatility) [6, 8]: 1.27* μg/min; pest or weed control at 280 g/ha ([7]; 168 h, 7 DAA): 80%; pest or weed control at 560 g/ha ([7]; 168 h, 7 DAA): 90%; pest or weed control at 280 g/ha ([7]; 336 h, 14 DAA): 75%; pest or weed control at 560 g/ha ([7]; 336 h, 14 DAA): 82.5%; pest or weed control at 280 g/ha ([7]; 504 h, 21 DAA): 100%; pest or weed control at 560 g/ha ([7]; 504 h, 21 DAA): 100%
3 | O=C(COc1ccc(Cl)cc1Cl)O/N=C/c1cccnc1 [Compound A29] | 50% | 70% | 67.5% | 82.5% | 77.5% | 97.5% | 70% | 91% | 90% | 97% | 72.5% | 100% | 82.5% | 77.5% | 96.5% | 95% | 91.5% | 97.5% | 77.5% | 82.5% | pest or weed control at 280 g/ha ([4]; 336 h, 14 DAA): 100%; pest or weed control at 560 g/ha ([4]; 336 h, 14 DAA): 99%; pest or weed control at 280 g/ha ([4]; 504 h, 21 DAA): 99%; pest or weed control at 560 g/ha ([4]; 504 h, 21 DAA): 96.5%; pest or weed control at 280 g/ha ([5]; 168 h, 7 DAA): 71.5%; pest or weed control at 560 g/ha ([5]; 168 h, 7 DAA): 79.7%; pest or weed control at 280 g/ha ([5]; 336 h, 14 DAA): 85.8%; pest or weed control at 560 g/ha ([5]; 336 h, 14 DAA): 94.7%; pest or weed control at 280 g/ha ([5]; 504 h, 21 DAA): 88.1%; pest or weed control at 560 g/ha ([5]; 504 h, 21 DAA): 98.3%; TGA Data (rate of weight loss, volatility) [6]: 0.38 µg/min; pest or weed control at 280 g/ha ([7]; 168 h, 7 DAA): 77.5%; pest or weed control at 560 g/ha ([7]; 168 h, 7 DAA): 77.5%; pest or weed control at 280 g/ha ([7]; 336 h, 14 DAA): 75%; pest or weed control at 560 g/ha ([7]; 336 h, 14 DAA): 100%; pest or weed control at 280 g/ha ([7]; 504 h, 21 DAA): 100%; pest or weed control at 560 g/ha ([7]; 504 h, 21 DAA): 100%
4 | O=C(COc1ccc(Cl)cc1Cl)O/N=C/c1ccncc1 [Compound A30] | 62.5% | 80% | 77.5% | 96.5% | 87.5% | 99.5% | 75% | 94% | 96% | 93.5% | 92.5% | 99% | 80% | 80% | 94% | 90% | 98% | 100% | 87.5% | 80% | pest or weed control at 280 g/ha ([4]; 336 h, 14 DAA): 100%; pest or weed control at 560 g/ha ([4]; 336 h, 14 DAA): 100%; pest or weed control at 280 g/ha ([4]; 504 h, 21 DAA): 99%; pest or weed control at 560 g/ha ([4]; 504 h, 21 DAA): 94.5%; pest or weed control at 280 g/ha ([5]; 168 h, 7 DAA): 78%; pest or weed control at 560 g/ha ([5]; 168 h, 7 DAA): 86.1%; pest or weed control at 280 g/ha ([5]; 336 h, 14 DAA): 91.5%; pest or weed control at 560 g/ha ([5]; 336 h, 14 DAA): 95.5%; pest or weed control at 280 g/ha ([5]; 504 h, 21 DAA): 95.4%; pest or weed control at 560 g/ha ([5]; 504 h, 21 DAA): 98.6%; TGA Data (rate of weight loss, volatility) [6]: 0.9679 µg/min; pest or weed control at 280 g/ha ([7]; 168 h, 7 DAA): 85%; pest or weed control at 560 g/ha ([7]; 168 h, 7 DAA): 96.5%; pest or weed control at 280 g/ha ([7]; 336 h, 14 DAA): 90%; pest or weed control at 560 g/ha ([7]; 336 h, 14 DAA): 97.5%; pest or weed control at 280 g/ha ([7]; 504 h, 21 DAA): 100%; pest or weed control at 560 g/ha ([7]; 504 h, 21 DAA): 100%
